In patent US20090053378A1, “Sweetener Compositions Having Enhanced Sweetness and Improved Temporal and/or Flavor Profiles” (THE COCA-COLA COMPANY, priority 2007, published 2009):

Assays:
[1] = Sweetness enhancement tasting of 2-hydroxybenzoic acid derivatives in sucrose solution; format: in vivo; parameters: key: NSE: No Significant Effect; conditions: 6% sucrose, roughly neutral pH; 6-10 scale (6, 8, 10% sucrose references)
Procedure: (§1) The hydroxybenzoic acid derivatives were tasted by themselves in water at a concentration of 3 mM prior to tasting with sucrose, glucose, or fructose to determine enhancement activities. After it was determined that the hydroxybenzoic acid derivatives themselves would contribute no sweetness, they were added to solutions with; 5% fructose, 9% glucose and 6% sucrose. These solutions were adjusted to roughly neutral pH using dilute NaOH solution. The sweetness of the fructose, glucose, and sucrose solutions were evaluated both without and with the hydroxybenzoic acid derivatives using independent sweetness intensity scales for sucrose, fructose, and glucose which were scaled according to references provided for each sweetener, Thus, for sucrose, sweetness references provided were 6, 8, and 10% sucrose and the sweetness intensities of unknown samples were scaled on this 6-10 scale. For fructose, 5, 7.5, and 9% fructose references were provided and the sweetness intensities of unknown samples were scaled on this 5-9 scale. For glucose, 9, 10.5, and 12% glucose references were provided and the sweetness intensities of unknown samples were scaled on this 9-12 scale.

[2] = Sweetness enhancement tasting of 2-hydroxybenzoic acid derivatives in fructose solution; format: in vivo; parameters: key: NSE: No Significant Effect; conditions: 5% fructose, roughly neutral pH; 5-9 scale (5, 7.5, 9% fructose references)
Procedure: as §1

[3] = Sweetness enhancement tasting of 2-hydroxybenzoic acid derivatives in glucose solution; format: in vivo; parameters: key: NSE: No Significant Effect; conditions: 9% glucose, roughly neutral pH; 9-12 scale (9, 10.5, 12% glucose references)
Procedure: as §1

[4] = Rate of dissolution of rebaudioside A forms in water; format: physicochemical

## COc1cccc(C(=O)O)c1O [compound 1]
[1]
  Sucrose sweetness rating, without => with the hydroxybenzoic acid derivative: NSE
[2]
  Fructose sweetness rating, without => with the hydroxybenzoic acid derivative: NSE
[3]
  Glucose sweetness rating, without => with the hydroxybenzoic acid derivative: NSE

## COc1ccc(C(=O)O)c(O)c1 [compound 2]
[1]
  Sucrose sweetness rating, without => with the hydroxybenzoic acid derivative: NSE
[2]
  Fructose sweetness rating, without => with the hydroxybenzoic acid derivative: NSE
[3]
  Glucose sweetness rating, without => with the hydroxybenzoic acid derivative: NSE

## COc1ccc(O)c(C(=O)O)c1 [compound 3]
[1]
  Sucrose sweetness rating, without => with the hydroxybenzoic acid derivative: NSE
[2]
  Fructose sweetness rating, without => with the hydroxybenzoic acid derivative: NSE
[3]
  Glucose sweetness rating, without => with the hydroxybenzoic acid derivative: NSE

## COc1cccc(O)c1C(=O)O [compound 4]
[1]
  Sucrose sweetness rating, without => with the hydroxybenzoic acid derivative: NSE
[2]
  Fructose sweetness rating, without => with the hydroxybenzoic acid derivative: NSE
[3]
  Glucose sweetness rating, without => with the hydroxybenzoic acid derivative: NSE

## O=C(O)c1c(O)cccc1O [compound 8]
[1]
  Sucrose sweetness rating, without => with the hydroxybenzoic acid derivative: NSE

## Cc1ccc(C(=O)O)c(O)c1 [compound 11]
[1]
  Sucrose sweetness rating, without => with the hydroxybenzoic acid derivative: NSE
[2]
  Fructose sweetness rating, without => with the hydroxybenzoic acid derivative: NSE
[3]
  Glucose sweetness rating, without => with the hydroxybenzoic acid derivative: NSE

## Cc1ccc(O)c(C(=O)O)c1 [compound 12]
[1]
  Sucrose sweetness rating, without => with the hydroxybenzoic acid derivative: NSE
[2]
  Fructose sweetness rating, without => with the hydroxybenzoic acid derivative: NSE
[3]
  Glucose sweetness rating, without => with the hydroxybenzoic acid derivative: NSE

## CCOc1ccc(C(=O)O)c(O)c1 [compound 14]
[1]
  Sucrose sweetness rating, without => with the hydroxybenzoic acid derivative: NSE
[2]
  Fructose sweetness rating, without => with the hydroxybenzoic acid derivative: NSE
[3]
  Glucose sweetness rating, without => with the hydroxybenzoic acid derivative: NSE

## O=C(O)c1cccc([N+](=O)[O-])c1O [compound 18]
[1]
  Sucrose sweetness rating, without => with the hydroxybenzoic acid derivative: NSE
[2]
  Fructose sweetness rating, without => with the hydroxybenzoic acid derivative: NSE
[3]
  Glucose sweetness rating, without => with the hydroxybenzoic acid derivative: NSE

## O=C(O)c1cc([N+](=O)[O-])ccc1O [compound 20]
[1]
  Sucrose sweetness rating, without => with the hydroxybenzoic acid derivative: NSE
[2]
  Fructose sweetness rating, without => with the hydroxybenzoic acid derivative: NSE

## O=C(O)c1cc(F)ccc1O [compound 23]
[1]
  Sucrose sweetness rating, without => with the hydroxybenzoic acid derivative: NSE
[2]
  Fructose sweetness rating, without => with the hydroxybenzoic acid derivative: NSE
[3]
  Glucose sweetness rating, without => with the hydroxybenzoic acid derivative: NSE

## O=C(O)c1c(O)cccc1F [compound 24]
[1]
  Sucrose sweetness rating, without => with the hydroxybenzoic acid derivative: NSE
[2]
  Fructose sweetness rating, without => with the hydroxybenzoic acid derivative: NSE
[3]
  Glucose sweetness rating, without => with the hydroxybenzoic acid derivative: NSE

## Cc1c(O)ccc(C(=O)O)c1O [compound 25]
[1]
  Sucrose sweetness rating, without => with the hydroxybenzoic acid derivative: NSE
[2]
  Fructose sweetness rating, without => with the hydroxybenzoic acid derivative: NSE
[3]
  Glucose sweetness rating, without => with the hydroxybenzoic acid derivative: NSE

## O=C(O)c1ccc(O)c(O)c1O [compound 26]
[1]
  Sucrose sweetness rating, without => with the hydroxybenzoic acid derivative: NSE
[2]
  Fructose sweetness rating, without => with the hydroxybenzoic acid derivative: NSE
[3]
  Glucose sweetness rating, without => with the hydroxybenzoic acid derivative: NSE

## Nc1cc(C(=O)O)c(O)c(S(=O)(=O)O)c1 [compound 27]
[1]
  Sucrose sweetness rating, without => with the hydroxybenzoic acid derivative: NSE
[2]
  Fructose sweetness rating, without => with the hydroxybenzoic acid derivative: NSE
[3]
  Glucose sweetness rating, without => with the hydroxybenzoic acid derivative: NSE

## Nc1cccc(C(=O)O)c1O [compound 28]
[1]
  Sucrose sweetness rating, without => with the hydroxybenzoic acid derivative: NSE
[2]
  Fructose sweetness rating, without => with the hydroxybenzoic acid derivative: NSE
[3]
  Glucose sweetness rating, without => with the hydroxybenzoic acid derivative: NSE

## Nc1ccc(C(=O)O)c(O)c1 [compound 29]
[2]
  Fructose sweetness rating, without => with the hydroxybenzoic acid derivative: NSE

## Nc1ccc(O)c(C(=O)O)c1 [compound 30]
[1]
  Sucrose sweetness rating, without => with the hydroxybenzoic acid derivative: NSE
[2]
  Fructose sweetness rating, without => with the hydroxybenzoic acid derivative: NSE
[3]
  Glucose sweetness rating, without => with the hydroxybenzoic acid derivative: NSE

## Cc1cc(C)c(O)c(C(=O)O)c1 [compound 31]
[1]
  Sucrose sweetness rating, without => with the hydroxybenzoic acid derivative: NSE
[2]
  Fructose sweetness rating, without => with the hydroxybenzoic acid derivative: NSE
[3]
  Glucose sweetness rating, without => with the hydroxybenzoic acid derivative: NSE

## O=Cc1ccc(O)c(C(=O)O)c1 [compound 32]
[1]
  Sucrose sweetness rating, without => with the hydroxybenzoic acid derivative: NSE
[2]
  Fructose sweetness rating, without => with the hydroxybenzoic acid derivative: NSE
[3]
  Glucose sweetness rating, without => with the hydroxybenzoic acid derivative: NSE

## O=C(O)c1ccc(O)c(C(=O)O)c1 [compound 33]
[1]
  Sucrose sweetness rating, without => with the hydroxybenzoic acid derivative: NSE
[2]
  Fructose sweetness rating, without => with the hydroxybenzoic acid derivative: NSE
[3]
  Glucose sweetness rating, without => with the hydroxybenzoic acid derivative: NSE

## CCCOc1ccc(C(=O)O)c(O)c1 [compound 34]
[1]
  Sucrose sweetness rating, without => with the hydroxybenzoic acid derivative: NSE
[2]
  Fructose sweetness rating, without => with the hydroxybenzoic acid derivative: NSE
[3]
  Glucose sweetness rating, without => with the hydroxybenzoic acid derivative: NSE

## O=C(O)c1ccc(OCc2ccccc2)cc1O [compound 35]
[1]
  Sucrose sweetness rating, without => with the hydroxybenzoic acid derivative: NSE
[2]
  Fructose sweetness rating, without => with the hydroxybenzoic acid derivative: NSE
[3]
  Glucose sweetness rating, without => with the hydroxybenzoic acid derivative: NSE

## O=C(O)c1ccc(OCCCc2ccccc2)cc1O [compound 36]
[1]
  Sucrose sweetness rating, without => with the hydroxybenzoic acid derivative: NSE
[2]
  Fructose sweetness rating, without => with the hydroxybenzoic acid derivative: NSE
[3]
  Glucose sweetness rating, without => with the hydroxybenzoic acid derivative: NSE

## COC(=O)COc1ccc(C(=O)O)c(O)c1 [compound 37]
[1]
  Sucrose sweetness rating, without => with the hydroxybenzoic acid derivative: NSE
[2]
  Fructose sweetness rating, without => with the hydroxybenzoic acid derivative: NSE
[3]
  Glucose sweetness rating, without => with the hydroxybenzoic acid derivative: NSE

## O=C(O)COc1ccc(C(=O)O)c(O)c1 [compound 38]
[1]
  Sucrose sweetness rating, without => with the hydroxybenzoic acid derivative: NSE
[2]
  Fructose sweetness rating, without => with the hydroxybenzoic acid derivative: NSE
[3]
  Glucose sweetness rating, without => with the hydroxybenzoic acid derivative: NSE

## O=C(O)c1ccc(OCCO)cc1O [compound 39]
[1]
  Sucrose sweetness rating, without => with the hydroxybenzoic acid derivative: NSE
[2]
  Fructose sweetness rating, without => with the hydroxybenzoic acid derivative: NSE
[3]
  Glucose sweetness rating, without => with the hydroxybenzoic acid derivative: NSE

## O=C(O)c1ccc(OCCCCO)cc1O [compound 40]
[1]
  Sucrose sweetness rating, without => with the hydroxybenzoic acid derivative: NSE
[2]
  Fructose sweetness rating, without => with the hydroxybenzoic acid derivative: NSE
[3]
  Glucose sweetness rating, without => with the hydroxybenzoic acid derivative: NSE

## NC(=O)COc1ccc(C(=O)O)c(O)c1 [compound 41]
[1]
  Sucrose sweetness rating, without => with the hydroxybenzoic acid derivative: NSE
[2]
  Fructose sweetness rating, without => with the hydroxybenzoic acid derivative: NSE
[3]
  Glucose sweetness rating, without => with the hydroxybenzoic acid derivative: NSE

## rebaudioside A [Form 1]
[4]; in 60 minutes
  Rate of dissolution in H2O at 25° C.: Very low (<0.2%

## rebaudioside A [Form 2]
[4]; in 5 minutes
  Rate of dissolution in H2O at 25° C.: Intermediate (<30%

## rebaudioside A [Form 3]
[4]; in 5 minutes
  Rate of dissolution in H2O at 25° C.: High (>30%

## rebaudioside A [Form 4]
[4]; in 5 minutes
  Rate of dissolution in H2O at 25° C.: High (>35.0%
